How the values were obtained:
[1] = test system: Male New Zealand white rabbits; test: Muscle relaxation test in anesthetized rabbits with neuromuscular transmission monitor (TOF); assay type: in vivo, rabbit; details: for ED (2 x ED95): Oryctolagus cuniculus; for ED (2 x ED95) / 2 × ED95: intravenous injection, propofol general anesthesia; for Onset time / Recovery time: i.v. 2×ED95 dose; for Onset time: onset = TOF=0; for Recovery time: recovery of muscle relaxation = TOF=90%
Protocol: Male New Zealand white rabbits weighing 2-3.5 kg were used as experimental animals for muscle relaxation test. The specific procedures were as follows: propofol emulsion was used to induce and maintain general anesthesia (induction dose: 10 mg/kg; maintenance dose: […]). Tracheal intubation was carried out and respiratory support was used.

[2] = test system: human body; details: cited from earlier work; for duration of muscle relaxation / action time: after single administration, clinical use

Compound | ED (2 x ED95) [1] | Onset time [1] | Recovery time [1] | ED (2 x ED95) ([1]; iv) | 2 × ED95 [1] | action time (lasts for) ([2]; in the human body) | duration of muscle relaxation / action time [2]
C[N+](CCOC(=O)OCOC(=O)CCC[N+]1(Cc2ccc(Br)cc2)CCCCC1)(Cc1ccc(Br)cc1)Cc1ccc(Br)cc1 [Compound 7] | 1.2 mg/kg | <40 s | 5.2 ± 2.1 min |  |  |  | 
C[N+](CCOC(=O)OCOC(=O)CCC[N+]1(Cc2ccccc2)CCCCC1)(Cc1ccccc1)Cc1ccccc1 [Compound 20] | 2.4 mg/kg | <40 s | 6.9 ± 2.5 min |  |  |  | 
C[N+](CCOC(=O)OCOC(=O)CCC[N+]1(Cc2ccc(Br)c(Br)c2)CCCCC1)(Cc1ccc(Br)cc1)Cc1cccc(Cl)c1Cl (stereo not drawn) [Compound 3] | 1.3 mg/kg | <40 s | 3.8 ± 0.4 min |  |  |  | 
C[N+](CCOC(=O)OCOC(=O)CCC[N+]1(Cc2c(F)cc(F)cc2F)CCCCC1)(Cc1ccc(F)cc1)Cc1c(F)cc(F)cc1F (stereo not drawn) [Compound 4] | 0.4 mg/kg | <40 s | 4.4 ± 0.5 min |  |  |  | 
CC(C[N+](C)(Cc1ccccc1)Cc1ccc([N+](=O)[O-])cc1)OC(=O)OCOC(=O)CCC[N+]1(Cc2ccc([N+](=O)[O-])cc2)CCCCC1 (stereo not drawn) [Compound 22] |  | <40 s | 6.2 ± 1.4 min | 1.2 mg/kg |  |  | 
COc1ccc(C[N+](C)(CCCC(C)OC(=O)OC(C)OC(=O)C[N+]2(Cc3ccc(OC)c(OC)c3)CCCCC2)Cc2ccc(OC)c(OC)c2)cc1OC (stereo not drawn) [Compound 25] |  | <40 s | 8.1 ± 2.9 min | 1.4 mg/kg |  |  | 
CC(OC(=O)CCC[N+]1(Cc2ccc(Cl)cc2Cl)CCCCC1)OC(=O)OCC[N+](C)(Cc1ccc(Cl)cc1)Cc1ccc(Cl)c(Cl)c1 (stereo not drawn) [Compound 10] |  | <40 s | 4.2 ± 0.9 min |  | 0.7 mg/kg |  | 
C[N+](CCOC(=O)OCOC(=O)CCC[N+]1(Cc2c(F)c(F)c(F)c(F)c2F)CCCCC1)(Cc1c(F)c(F)c(F)c(F)c1F)Cc1c(F)c(F)c(F)c(F)c1F [Compound 6] | 0.9 mg/kg | <40 s | 5.1 ± 2.1 min |  |  |  | 
C[N+](CCOC(=O)OCOC(=O)CCC[N+]1(Cc2ccccc2Br)CCCCC1)(Cc1ccccc1Br)Cc1ccccc1Br [Compound 8] |  | <40 s | 7.2 ± 1.8 min | 1.2 mg/kg |  |  | 
C[N+](C)(C)CCOC(=O)CCC(=O)OCC[N+](C)(C)C [Succinylcholine, reference compound] |  | <40 s | 12.3 ± 4.1 min | 1.8 mg/kg |  | 10 min | 
C[N+](CCOC(=O)OCOC(=O)CCC[N+]1(Cc2ccc([N+](=O)[O-])cc2)CCCCC1)(Cc1ccc(Br)cc1)Cc1ccc([N+](=O)[O-])cc1 (stereo not drawn) [Compound 15] | 1.9 mg/kg | <40 s | 5.3 ± 2.1 min |  |  |  | 
C[N+](CCOC(=O)OCOC(=O)CCC[N+]1(Cc2ccc(Cl)cc2Cl)CCCCC1)(Cc1ccc(Cl)cc1)Cc1ccc(Cl)c(Cl)c1 (stereo not drawn) [Compound 1] | 0.5 mg/kg | <40 s | 4.2 ± 1.1 min |  |  |  | 
micuronium |  |  |  |  |  |  | 15 to 20 min
C[N+](CCOC(=O)OCOC(=O)CCC[N+]1(Cc2ccc([N+](=O)[O-])cc2[N+](=O)[O-])CCCCC1)(Cc1ccc([N+](=O)[O-])cc1)Cc1ccc([N+](=O)[O-])cc1 [Compound 5] | 0.4 mg/kg | <40 s | 6.2 ± 1.4 min |  |  |  | 
CC(=O)O[C@H]1C[C@@H]2CC[C@@H]3[C@H](CC[C@@]4(C)[C@H]3C[C@H]([N+]3(C)CCCCC3)[C@@H]4OC(C)=O)[C@@]2(C)C[C@@H]1[N+]1(C)CCCCC1 [pancuronium] |  |  |  |  |  |  | > 60 min
CC(OC(=O)CCC[N+]1(Cc2ccc([N+](=O)[O-])cc2)CCCCC1)OC(=O)OCC[N+](C)(Cc1ccccc1)Cc1ccc([N+](=O)[O-])cc1 (stereo not drawn) [Compound 14] | 2.4 mg/kg | <40 s | 4.2 ± 1.2 min |  |  |  | 
COc1ccc(C[C@@H]2c3cc(OC)c(OC)cc3CC[N@+]2(C)CCC(=O)OCCCCCOC(=O)CC[N@@+]2(C)CCc3cc(OC)c(OC)cc3[C@H]2Cc2ccc(OC)c(OC)c2)cc1OC [Cisatracurium, reference compound] | 0.08 mg/kg | >120 s | 17.6 ± 3.2 min |  |  |  | 
C[N+](CCOC(=O)OCOC(=O)CCC[N+]1(Cc2ccc([N+](=O)[O-])cc2)CCCCC1)(Cc1ccc([N+](=O)[O-])cc1)Cc1ccc(Cl)c(Cl)c1 (stereo not drawn) [Compound 16] | 2.2 mg/kg | <40 s | 5.2 ± 1.1 min |  |  |  | 
C[N+](CCOC(=O)OCOC(=O)CCC[N+]1(Cc2ccc([N+](=O)[O-])cc2)CCCCC1)(Cc1ccc([N+](=O)[O-])cc1)Cc1ccc([N+](=O)[O-])cc1 [Compound 12] | 1.8 mg/kg | <40 s | 8.1 ± 0.2 min |  |  |  | 
C[N+](CCOC(=O)OCOC(=O)CCC[N+]1(Cc2ccccc2)CCCCC1)(Cc1ccccc1)Cc1ccc([N+](=O)[O-])cc1 (stereo not drawn) [Compound 18] | 1.9 mg/kg | <40 s | 7.2 ± 2.7 min |  |  |  | 
COc1ccc(C[N+](C)(CCCCOC(=O)OC(C)OC(=O)C[N+]2(Cc3ccc(OC)c(OC)c3)CCCCC2)Cc2ccc(OC)c(OC)c2)cc1OC (stereo not drawn) [Compound 24] |  | <40 s | 8.4 ± 1.9 min | 1.4 mg/kg |  |  | 
C[N+](CCOC(=O)OCOC(=O)CCC[N+]1(Cc2ccc([N+](=O)[O-])cc2)CCCCC1)(Cc1ccccc1)Cc1ccc([N+](=O)[O-])cc1 (stereo not drawn) [Compound 13] | 2.1 mg/kg | <40 s | 7.9 ± 1.9 min |  |  |  | 
C[N+](CCOC(=O)OCOC(=O)CCC[N+]1(Cc2ccc([N+](=O)[O-])cc2)CCCCC1)(Cc1ccccc1)Cc1ccccc1 [Compound 19] | 2.2 mg/kg | <40 s | 7.1 ± 1.2 min |  |  |  | 
CC(OC(=O)CCC[N+]1(Cc2ccc(Cl)cc2Cl)CCCCC1)OC(=O)OCC[N+](C)(Cc1ccc(Cl)cc1)Cc1ccc(Cl)c(Cl)c1 (stereo not drawn) [Compound 9] |  | <40 s | 4.2 ± 1.1 min | 0.6 mg/kg |  |  | 
C[N+](CCCCOC(=O)OCOC(=O)C[N+]1(Cc2ccc([N+](=O)[O-])cc2)CCCCC1)(Cc1ccc([N+](=O)[O-])cc1)Cc1ccc(Cl)cc1Cl (stereo not drawn) [Compound 21] | 4 mg/kg | <40 s | 5.1 ± 1.1 min |  |  |  | 
CC(OC(=O)CCC[N+]1(Cc2ccc(Cl)cc2Cl)CCCCC1)OC(=O)OCC[N+](C)(Cc1ccc(Cl)cc1)Cc1ccc(Cl)c(Cl)c1 (stereo not drawn) [Compound 11] |  | <40 s | 6.7 ± 2.6 min |  | 0.5 mg/kg |  | 
COc1ccc(C[N+](C)(Cc2ccc(OC)c(OC)c2)CC(C)OC(=O)OC(C)OC(=O)CCC[N+]2(Cc3ccc(OC)c(OC)c3)CCCCC2)cc1OC (stereo not drawn) [Compound 23] |  | <40 s | 7.8 ± 2.4 min | 1.2 mg/kg |  |  | 
